Measured values: PubChem BioAssay AID328 (DTP/NCI, 2004)
“And” between values parts separate entries of the source, which are not always exact repeats. Equal entries are not always repeated. Inconclusive results and toxic doses are left out.

Test system: BDF1 mice, P388 leukemia ip, median survival T/C
Assay: NCI In Vivo Anticancer Drug Screen. Data for tumor model P388 Leukemia (intraperitoneal) in B6D2F1 (BDF1) mice
Details: endpoint: median survival time, higher = longer survival
Outline: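 Compound-treated tumour-bearing mice were compared with vehicle-treated controls. Survival was recorded, and the value is the treated-group measurement divided by the control-group measurement (T/C).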

[1] = dose: 100.0 mg/kg/injection, schedule: Q04DX003 (ip), vehicle: Klucel (hydroxypropylcellulose) (HPC)
[2] = dose: 100.0 mg/kg/injection, schedule: Q04DX003 (ip), vehicle: saline
[3] = dose: 200.0 mg/kg/injection, schedule: Q04DX003 (ip), vehicle: saline
[4] = dose: 400.0 mg/kg/injection, schedule: Q04DX003 (ip), vehicle: saline
[5] = dose: 50.0 mg/kg/injection, schedule: Q01DX009 (ip), vehicle: saline with Tween-80
[6] = dose: 100.0 mg/kg/injection, schedule: Q01DX009 (ip), vehicle: saline with Tween-80
[7] = dose: 200.0 mg/kg/injection, schedule: Q01DX009 (ip), vehicle: saline with Tween-80
[8] = dose: 6.25 mg/kg/injection, schedule: Q01DX009 (ip), vehicle: saline
[9] = dose: 12.5 mg/kg/injection, schedule: Q01DX009 (ip), vehicle: saline
[10] = dose: 50.0 mg/kg/injection, schedule: Q04DX003 (ip), vehicle: saline with Tween-80
[11] = dose: 100.0 mg/kg/injection, schedule: Q04DX003 (ip), vehicle: saline with Tween-80

## O=[N+]([O-])c1ccc(Nc2ccc(Cl)c(Cl)c2)c2c1no[n+]2[O-]
dose: 17.5 mg/kg/injection, schedule: Q01DX009 (ip), vehicle: saline with Tween-80
  T/C: 88 % of control
dose: 35.0 mg/kg/injection, schedule: Q01DX009 (ip), vehicle: saline with Tween-80
  T/C: 92 % of control
dose: 70.0 mg/kg/injection, schedule: Q01DX009 (ip), vehicle: saline with Tween-80
  T/C: 88 % of control

## CCOc1ccc(N2C(=O)CC(Sc3ccccc3N)C2=O)cc1 (centres undefined)
dose: 100.0 mg/kg/injection, schedule: Q01DX001 (ip), vehicle: Klucel (hydroxypropylcellulose) (HPC)
  T/C: 105 % of control
[1]
  T/C: 100 % of control
dose: 200.0 mg/kg/injection, schedule: Q01DX001 (ip), vehicle: Klucel (hydroxypropylcellulose) (HPC)
  T/C: 100 % of control
dose: 200.0 mg/kg/injection, schedule: Q04DX003 (ip), vehicle: Klucel (hydroxypropylcellulose) (HPC)
  T/C: 90 % of control
dose: 400.0 mg/kg/injection, schedule: Q01DX001 (ip), vehicle: Klucel (hydroxypropylcellulose) (HPC)
  T/C: 100 % of control
dose: 400.0 mg/kg/injection, schedule: Q04DX003 (ip), vehicle: Klucel (hydroxypropylcellulose) (HPC)
  T/C: 100 % of control

## O=C1C(Br)=CC(=C2C=C(Br)C(=O)C(Br)=C2)C=C1Br
dose: 50.0 mg/kg/injection, schedule: Q04DX003 (ip), vehicle: Klucel (hydroxypropylcellulose) (HPC)
  T/C: 113 % of control
[1]
  T/C: 122 % of control

## Nc1nc(N)c2cc(NCc3ccccc3Cl)ccc2n1
dose: 2.34 mg/kg/injection, schedule: Q04DX003 (ip), vehicle: Klucel (hydroxypropylcellulose) (HPC)
  T/C: 104 % of control
dose: 4.68 mg/kg/injection, schedule: Q04DX003 (ip), vehicle: Klucel (hydroxypropylcellulose) (HPC)
  T/C: 100 % of control
dose: 6.25 mg/kg/injection, schedule: Q01DX009 (ip), vehicle: Klucel (hydroxypropylcellulose) (HPC)
  T/C: 105 % of control
dose: 9.37 mg/kg/injection, schedule: Q04DX003 (ip), vehicle: Klucel (hydroxypropylcellulose) (HPC)
  T/C: 122 % of control
dose: 12.5 mg/kg/injection, schedule: Q01DX009 (ip), vehicle: Klucel (hydroxypropylcellulose) (HPC)
  T/C: 110 % of control
dose: 18.75 mg/kg/injection, schedule: Q04DX003 (ip), vehicle: Klucel (hydroxypropylcellulose) (HPC)
  T/C: 100 % of control
dose: 25.0 mg/kg/injection, schedule: Q01DX009 (ip), vehicle: Klucel (hydroxypropylcellulose) (HPC)
  T/C: 100 % of control

## CC(Br)C(=O)NC(CO)C(=O)O (centres undefined)
[2]
  T/C: 95 % of control
[3]
  T/C: 91 % of control
[4]
  T/C: 91 % of control

## CCOC(=O)C1(C(C)C)OC2(O)CCCCCN2C1=O (centres undefined)
[5]
  T/C: 95 % of control
[6]
  T/C: 109 % of control
[7]
  T/C: 104 % of control

## CCCCC[C@@H](CN(C)C)[C@H](O)/C=C/c1ccc(Cl)cc1
dose: 50.0 mg/kg/injection, schedule: Q01DX009 (ip), vehicle: Klucel (hydroxypropylcellulose) (HPC)
  T/C: 96 % of control

## CN1CCN(CCCN2c3ccccc3Sc3ccc(C(F)(F)F)cc32)CC1
[8]
  T/C: 109 % of control
dose: 9.37 mg/kg/injection, schedule: Q01DX009 (ip), vehicle: saline
  T/C: 118 % of control
dose: 9.37 mg/kg/injection, schedule: Q04DX003 (ip), vehicle: saline with Tween-80
  T/C: 117 % of control
[9]
  T/C: 109 % of control and 118 % of control
dose: 18.75 mg/kg/injection, schedule: Q04DX003 (ip), vehicle: saline with Tween-80
  T/C: 121 % of control
dose: 44.0 mg/kg/injection, schedule: Q01DX009 (ip), vehicle: saline with Tween-80
  T/C: 107 % of control
[10]
  T/C: 113 % of control
dose: 75.0 mg/kg/injection, schedule: Q04DX003 (ip), vehicle: saline
  T/C: 115 % of control
[11]
  T/C: 150 % of control and 163 % of control

## Cc1cc(C(C(N)=O)c2ccccc2)ccc1N(CCCl)CCCl (centres undefined)
dose: 0.22 mg/kg/injection, schedule: Q01DX009 (ip), vehicle: Klucel (hydroxypropylcellulose) (HPC)
  T/C: 112 % of control
dose: 0.33 mg/kg/injection, schedule: Q01DX009 (ip), vehicle: Klucel (hydroxypropylcellulose) (HPC)
  T/C: 108 % of control
dose: 0.77 mg/kg/injection, schedule: Q01DX009 (ip), vehicle: Klucel (hydroxypropylcellulose) (HPC)
  T/C: 155 % of control
dose: 2.34 mg/kg/injection, schedule: Q01DX009 (ip), vehicle: Klucel (hydroxypropylcellulose) (HPC)
  T/C: 154 % of control
dose: 4.68 mg/kg/injection, schedule: Q01DX009 (ip), vehicle: Klucel (hydroxypropylcellulose) (HPC)
  T/C: 186 % of control
dose: 6.0 mg/kg/injection, schedule: Q04DX003 (ip), vehicle: saline
  T/C: 118 % of control
dose: 12.37 mg/kg/injection, schedule: Q01DX009 (ip), vehicle: Klucel (hydroxypropylcellulose) (HPC)
  T/C: 96 % of control and 205 % of control
dose: 13.75 mg/kg/injection, schedule: Q04DX003 (ip), vehicle: Klucel (hydroxypropylcellulose) (HPC)
  T/C: 178 % of control
dose: 18.75 mg/kg/injection, schedule: Q01DX009 (ip), vehicle: Klucel (hydroxypropylcellulose) (HPC)
  T/C: 103 % of control
dose: 27.5 mg/kg/injection, schedule: Q04DX003 (ip), vehicle: Klucel (hydroxypropylcellulose) (HPC)
  T/C: 213 % of control
dose: 28.12 mg/kg/injection, schedule: Q01DX009 (ip), vehicle: Klucel (hydroxypropylcellulose) (HPC)
  T/C: 110 % of control
dose: 35.0 mg/kg/injection, schedule: Q04DX003 (ip), vehicle: Klucel (hydroxypropylcellulose) (HPC)
  T/C: 218 % of control
dose: 55.0 mg/kg/injection, schedule: Q04DX003 (ip), vehicle: Klucel (hydroxypropylcellulose) (HPC)
  T/C: 272 % of control and 221 % of control
dose: 80.0 mg/kg/injection, schedule: Q04DX003 (ip), vehicle: Klucel (hydroxypropylcellulose) (HPC)
  T/C: 272 % of control

## CC(=O)N\C(N)=N/N=C\C(C)=N/N=C(\N)NC(C)=O
[5]
  T/C: 97 % of control
[6]
  T/C: 100 % of control
[7]
  T/C: 100 % of control

## C[n+]1ccc(Nc2ccc(NC(=O)c3ccc(Nc4cc[n+](C)c5ccc(N)cc45)cc3)cc2)cc1
dose: 1.0 mg/kg/injection, schedule: Q01DX009 (ip), vehicle: Klucel (hydroxypropylcellulose) (HPC)
  T/C: 211 % of control
dose: 2.0 mg/kg/injection, schedule: Q01DX009 (ip), vehicle: Klucel (hydroxypropylcellulose) (HPC)
  T/C: 170 % of control and 195 % of control
dose: 3.24 mg/kg/injection, schedule: Q04DX003 (ip), vehicle: water
  T/C: 173 % of control
dose: 4.0 mg/kg/injection, schedule: Q01DX009 (ip), vehicle: Klucel (hydroxypropylcellulose) (HPC)
  T/C: 243 % of control and 250 % of control
dose: 4.32 mg/kg/injection, schedule: Q01DX009 (ip), vehicle: water
  T/C: 254 % of control
dose: 5.4 mg/kg/injection, schedule: Q04DX003 (ip), vehicle: water
  T/C: 180 % of control
dose: 7.2 mg/kg/injection, schedule: Q01DX009 (ip), vehicle: water
  T/C: 261 % of control
dose: 8.0 mg/kg/injection, schedule: Q01DX009 (ip), vehicle: Klucel (hydroxypropylcellulose) (HPC)
  T/C: 244 % of control and 250 % of control
dose: 9.0 mg/kg/injection, schedule: Q04DX003 (ip), vehicle: water
  T/C: 220 % of control
dose: 15.0 mg/kg/injection, schedule: Q04DX003 (ip), vehicle: water
  T/C: 103 % of control

## NC1CCCCC1.[O]=[Cr](=[O])([OH])[OH]
[8]
  T/C: 100 % of control
[9]
  T/C: 90 % of control

## N#CCC(C#N)N1CCOCC1 (centres undefined)
dose: 6.25 mg/kg/injection, schedule: Q01DX009 (ip), vehicle: saline with Tween-80
  T/C: 111 % of control
dose: 12.5 mg/kg/injection, schedule: Q01DX009 (ip), vehicle: saline with Tween-80
  T/C: 96 % of control
dose: 25.0 mg/kg/injection, schedule: Q01DX009 (ip), vehicle: saline with Tween-80
  T/C: 88 % of control
[10]
  T/C: 104 % of control
[11]
  T/C: 108 % of control

## COC(CCC#N)c1ccc(C)cc1 (centres undefined)
dose: 25.0 mg/kg/injection, schedule: Q04DX003 (sc), vehicle: olive oil, sesame oil, peanut oil
  T/C: 100 % of control
dose: 50.0 mg/kg/injection, schedule: Q04DX003 (sc), vehicle: olive oil, sesame oil, peanut oil
  T/C: 95 % of control
dose: 100.0 mg/kg/injection, schedule: Q04DX003 (sc), vehicle: olive oil, sesame oil, peanut oil
  T/C: 100 % of control

## CC(=O)Nc1ccc(C(=O)O)c([N+](=O)[O-])c1
dose: 25.0 mg/kg/injection, schedule: Q01DX009 (ip), vehicle: saline
  T/C: 86 % of control
dose: 50.0 mg/kg/injection, schedule: Q01DX009 (ip), vehicle: saline
  T/C: 92 % of control and 106 % of control
dose: 100.0 mg/kg/injection, schedule: Q01DX009 (ip), vehicle: saline
  T/C: 91 % of control and 100 % of control
[2]
  T/C: 98 % of control
dose: 200.0 mg/kg/injection, schedule: Q01DX009 (ip), vehicle: saline
  T/C: 106 % of control
[3]
  T/C: 108 % of control
dose: 400.0 mg/kg/injection, schedule: Q01DX009 (ip), vehicle: saline
  T/C: 101 % of control
[4]
  T/C: 96 % of control
